Source: publication PMC8967248, “Impact of Porphyrin Binding to GENOMES UNCOUPLED 4 on Tetrapyrrole Biosynthesis in planta” (Frontiers in Plant Science, 2022)
Positions count from the first letter of the chain named.

Legend:
GUN4 (AtGUN4) [1] = biological target: T1, GUN4 (AtGUN4) (Arabidopsis thaliana, UniProt Q9LX31, F191A); experiment: tryptophan fluorescence quenching; assay type: binding; details: read-out: apparent Kd
T1 construct: 6xHis-tagged, pQE80_AtGUN4(WT), expressed in and purified from E. coli
T1 sequence (Q9LX31 70-265 F191A): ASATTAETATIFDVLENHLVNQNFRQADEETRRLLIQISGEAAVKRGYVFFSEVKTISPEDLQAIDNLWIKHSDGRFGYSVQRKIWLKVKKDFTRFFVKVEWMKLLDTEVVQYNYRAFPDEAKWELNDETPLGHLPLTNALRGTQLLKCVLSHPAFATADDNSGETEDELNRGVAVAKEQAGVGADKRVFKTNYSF

GUN4 (AtGUN4) [2] = biological target: T2, GUN4 (AtGUN4) (Arabidopsis thaliana, UniProt Q9LX31); experiment: tryptophan fluorescence quenching; assay type: binding; details: read-out: apparent Kd
T2 construct: 6xHis-tagged, pQE80_AtGUN4(WT), expressed in and purified from E. coli
T2 sequence (Q9LX31 70-265): T1 sequence (Q9LX31 70-265 F191A) with A122F

Kd (GUN4 (AtGUN4) [1]): 2.1 ± 0.28 µM
Kd (GUN4 (AtGUN4) [2]): 1.05 ± 0.12 µM
SMILES: C=CC1=C(C)c2cc3[nH]c(cc4nc(cc5[nH]c(cc1n2)c(C)c5CCC(=O)O)C(CCC(=O)O)=C4C)c(C)c3C=C [PIX]
